# Results: US20160031859A1, “Alkyl [(S)-1-((S)-2--buta-1,3-diynyl)-phenyl]-1H-imidazol-2-yl}-pyrrolidine-1-carbonyl)-2-methyl-propyl]-carbamate naphthalene-1,5-disulfonate, pharmaceutical composition, medicament, method for treatment of viral diseases” (priority 2013, published 2016)
# What was measured:
# genotype 2a HCV = experiment: HCV replicon inhibitory activity, genotype 2a; type: cell-based; conditions: Hepatitis C virus; HCV genotype 2a, FBS; read-out: gT2a FBS EC50
# [1] = Investigation of storage of naphthalene-1,5-disulfonates (amount of admixtures, UV 220 nm); type: physicochemical; conditions: for Max admixture / Sum of admixtures: refrigerator, 4.7° C.
# Method: Investigation of storage of naphthalene-1,5-disulfonates of the general formula 1. All samples were stored in glass vials sealed with rubber cork and aluminum caps, in a refrigerator at a temperature of about ˜4.7 ° C. The amount of admixtures was determined by method of internal normalization, detection was carried out using UV detector at 220 nm. Below are given the test results for compound 1.1 showing their stability at temperature 4.7° C.
# [2] = test system: subgenomic RNA-replicon HCV (genotype 1b, clon Con1); experiment: HCV replicon immunoenzymatic assay in Huh7 cells, genotype 1b; type: cell-based; conditions: Hepatitis C virus, Huh-7, read-out: gT1b FBS EC50
# Method: Determination of antiviral activity of the compounds of the general formula 1 (inhibiting ability of NS5A protein).
# Inhibiting ability of compounds of formula 1 of NS5A protein was determined in the human hepatoma cell line Huh7, comprising subgenomic RNA-replicon HCV (genotype 1b, don Con1). A version of immumoenzymatic assay (IEA) on viral protein NS5A in 96-well plate was used as an experimental method. Cytotoxicity of the compounds was estimated in parallel regime.
# Cells Huh7 were seeded in 96-well plate (7.5×10^3 cells to each well in 100 μl of culture medium). Solutions of the tested compounds in DMEM medium {DMEM 1×; Source: Cellgro; Catalogue: 10-013-CV} were prepared immediately before use. Eleven serial three fold dilutions with variation of concentrations from 20 nM to 0.2 pM were prepared. In 4 hours after seeding, serial dilutions of the compounds were added to the cells (100 μl to each well). Final concentration of tested compounds was varied from 10 nM to 0.1 pM, and DMSO—0.5%. If it was necessary, higher concentrations of the disclosed azoles were investigated. Each dilution of the compound was tested on two identical wells. […] The reaction was arrested by the addition of 2N H2SO4 in amount of 100 μl/well, and optical density (wavelength 490 nm) was measured by means of multiscan plate reader Victor3 V 1420 (Perkin Elmer). […]
# genotype 1a HCV = experiment: HCV replicon inhibitory activity, genotype 1a; type: cell-based; conditions: Hepatitis C virus; HCV genotype 1a, FBS; read-out: gT1a FBS EC50
smiles,measurement,setting,value
"COC(=O)N[C@H](C(=O)N1CCC[C@H]1c1ncc(C#CC#Cc2ccc(-c3cnc([C@@H]4CCCN4C(=O)[C@@H](NC(=O)OC)C(C)C)[nH]3)cc2)[nH]1)C(C)C [Compound 1.1, methyl [(S)-1-((S)-2-{5-[4-(4-{2-[(S)-1-((S)-2-methoxycarbonylamino-3-methyl-butyryl)-pyrrolidin-2-yl]-3H-imidazol-4-yl}-buta-1,3-diynyl)-phenyl]-1H-imidazol-2-yl}-pyrrolidine-1-carbonyl)-2-methylpropyl]-carbamate naphthalene-1,5-disulfonate]",EC50,genotype 2a HCV,< 1 nM
same,Max admixture,[1]; 1 week storage,0.348%
same,Sum of admixtures,[1]; 1 week storage,1.369%
same,Max admixture,[1]; 4 weeks storage,0.341%
same,Sum of admixtures,[1]; 4 weeks storage,1.506%
same,Max admixture,[1]; 20 weeks storage,0.298%
same,Sum of admixtures,[1]; 20 weeks storage,1.493%
same,Max admixture,[1]; before the test,0.342%
same,Sum of admixtures,[1]; before the test,1.312%
same,"storage stability, in words",[1]; temperature 4.7° C.,stability
same,EC50,[2],< 1 nM
same,EC50,genotype 1a HCV,< 1 nM
